Experiments:
HDAC6 human recombinant = HDAC6 human recombinant (Homo sapiens (Human), UniProt Q9UBN7); assay: HDAC6 enzyme activity inhibition (fluorimetric, in vitro); type: biochemical; details: samples at 0.1, 1, 10, 100 and 1000 nM; 37° C. 60 minutes
Method: (§1) A HDAC enzyme inhibitory capacity of a test material was measured by using HDAC1 Fluorimetric Drug Discovery Assay Kit (Enzolifesciences: BML-AK511) and HDAC6 human recombinant (Calbiochem: 382180). For a HDAC1 assay, samples were treated at a concentration of 100, 1000 and 10000 nM. For a HDAC6 assay, samples were treated at a concentration of 0.1, 1, 10, 100 and 1000 nM. After the above sample treatment, a reaction was continued at 37° C. for 60 minutes, treated with a developer, and subjected to reaction at 37° C. for 30 minutes, after which fluorescence intensity (Ex 390, Em 460) was measured by using FlexStatin3 (Molecular device).

HDAC1 = HDAC1 (Homo sapiens (Human), UniProt Q13547); assay: HDAC1 enzyme activity inhibition (HDAC1 Fluorimetric Drug Discovery Assay Kit); type: biochemical; details: samples at 100, 1000 and 10000 nM; 37° C. 60 minutes
HDAC1, sequence (Q13547 whole entry): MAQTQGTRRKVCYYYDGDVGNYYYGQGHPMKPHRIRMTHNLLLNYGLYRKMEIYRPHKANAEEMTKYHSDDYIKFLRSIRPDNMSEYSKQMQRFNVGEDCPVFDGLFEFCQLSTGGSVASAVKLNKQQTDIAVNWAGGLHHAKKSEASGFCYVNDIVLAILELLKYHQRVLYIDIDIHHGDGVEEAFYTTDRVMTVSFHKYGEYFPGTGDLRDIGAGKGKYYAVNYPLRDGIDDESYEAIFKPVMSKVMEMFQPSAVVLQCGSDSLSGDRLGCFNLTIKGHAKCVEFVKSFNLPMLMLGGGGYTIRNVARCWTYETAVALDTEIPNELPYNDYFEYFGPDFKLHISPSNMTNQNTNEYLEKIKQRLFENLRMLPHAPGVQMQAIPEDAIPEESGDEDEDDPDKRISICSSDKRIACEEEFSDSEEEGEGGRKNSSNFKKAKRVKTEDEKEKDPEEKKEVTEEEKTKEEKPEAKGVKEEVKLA
Method: as §1

HDAC6 human recombinant, sequence (Q9UBN7 whole entry): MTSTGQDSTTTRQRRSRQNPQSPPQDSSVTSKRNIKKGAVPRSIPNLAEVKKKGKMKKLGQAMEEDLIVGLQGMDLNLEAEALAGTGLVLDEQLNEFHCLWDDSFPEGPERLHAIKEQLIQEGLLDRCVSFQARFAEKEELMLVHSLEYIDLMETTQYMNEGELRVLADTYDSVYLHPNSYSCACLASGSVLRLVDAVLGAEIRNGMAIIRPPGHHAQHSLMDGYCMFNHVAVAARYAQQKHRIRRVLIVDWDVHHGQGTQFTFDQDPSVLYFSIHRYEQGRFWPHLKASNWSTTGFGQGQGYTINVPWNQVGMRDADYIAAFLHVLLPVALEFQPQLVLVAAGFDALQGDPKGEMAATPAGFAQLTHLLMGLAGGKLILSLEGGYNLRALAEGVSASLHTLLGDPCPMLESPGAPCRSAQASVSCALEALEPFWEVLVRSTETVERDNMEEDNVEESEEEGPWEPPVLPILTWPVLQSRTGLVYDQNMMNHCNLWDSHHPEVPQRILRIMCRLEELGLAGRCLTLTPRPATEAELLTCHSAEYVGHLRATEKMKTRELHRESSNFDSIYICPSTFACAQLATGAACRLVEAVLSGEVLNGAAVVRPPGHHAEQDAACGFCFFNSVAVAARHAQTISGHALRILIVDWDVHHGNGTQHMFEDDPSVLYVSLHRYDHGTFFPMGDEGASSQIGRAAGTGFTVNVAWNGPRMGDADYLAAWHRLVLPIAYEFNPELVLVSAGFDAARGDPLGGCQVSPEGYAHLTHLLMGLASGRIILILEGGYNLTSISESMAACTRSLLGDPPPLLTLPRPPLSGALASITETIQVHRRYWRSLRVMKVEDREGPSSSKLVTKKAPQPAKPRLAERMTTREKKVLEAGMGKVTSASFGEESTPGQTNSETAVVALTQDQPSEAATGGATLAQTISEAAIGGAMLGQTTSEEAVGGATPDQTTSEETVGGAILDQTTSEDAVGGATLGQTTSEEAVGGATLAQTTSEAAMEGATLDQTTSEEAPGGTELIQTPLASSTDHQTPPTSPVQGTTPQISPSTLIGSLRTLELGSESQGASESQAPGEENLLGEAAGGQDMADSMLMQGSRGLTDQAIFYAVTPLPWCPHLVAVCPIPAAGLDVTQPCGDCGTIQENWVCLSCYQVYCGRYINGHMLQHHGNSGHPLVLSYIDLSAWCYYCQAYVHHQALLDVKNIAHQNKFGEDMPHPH

Structure (SMILES) | IC50 (HDAC6 human recombinant) | IC50 (HDAC1)
O=C1CN(c2ccccc2)C(=O)N1Cc1ccc(-c2nnc(C(F)F)o2)cn1 [Compound 4, 3-((5-(5-(difluoromethyl)-1,3,4-oxadiazol-2-yl)pyridin-2-yl)methyl)-1-phenylimidazolidin-2,4-dione] | 99 nM | > 10000 nM
CC1(C)C(=O)N(Cc2ccc(-c3nnc(C(F)F)o3)cn2)C(=O)N1c1c(F)cccc1F [Compound 13, 3-((5-(5-(difluoromethyl)-1,3,4-oxadiazol-2-yl)pyridin-2-yl)methyl)-1-(2,6-difluorophenyl)-5,5-dimethylimidazolidin-2,4-dione] | 27 nM | > 10000 nM
CC(=O)N1CC2(C1)C(=O)N(Cc1ccc(-c3nnc(C(F)F)o3)cn1)C(=O)N2c1ccccc1 [Compound 23, 2-acetyl-7-((5-(5-(difluoromethyl)-1,3,4-oxadiazol-2-yl)pyridin-2-yl)methyl)-5-phenyl-2,5,7-triazaspiro[3.4]octan-6,8-dione] | 369 nM | > 10000 nM
CC(=O)N1CCc2c1cccc2N1C(=O)N(Cc2ccc(-c3nnc(C(F)F)o3)cn2)C(=O)C1(C)C [Compound 37, 1-(1-acetylindolin-4-yl)-3-((5-(5-(difluoromethyl)-1,3,4-oxadiazol-2-yl)pyridin-2-yl)methyl)-5,5-dimethylimidazolidin-2,4-dione] | 68 nM | > 10000 nM
O=C1CN(c2ccccc2)C(=O)N1Cc1ccc(-c2nnc(C(F)F)o2)cc1F [Compound 3, 3-(4-(5-(difluoromethyl)-1,3,4-oxadiazol-2-yl)-2-fluorobenzyl)-1-phenylimidazolidin-2,4-dione] | 219 nM | > 10000 nM
CN1CC=C(c2cccc(N3C(=O)N(Cc4ccc(-c5nnc(C(F)F)o5)cn4)C(=O)C3(C)C)c2)CC1 [Compound 19, 3-((5-(5-(difluoromethyl)-1,3,4-oxadiazol-2-yl)pyridin-2-yl)methyl)-5,5-dimethyl-1-(3-(1-methyl-1,2,3,6-tetrahydropyridin-4-yl)phenyl)imidazolidin-2,4-dione] | 85 nM | > 10000 nM
CC1(C)C(=O)N(Cc2ccc(-c3nnc(C(F)F)o3)cn2)C(=O)N1c1cccc(F)c1F [Compound 15, 3-((5-(5-(difluoromethyl)-1,3,4-oxadiazol-2-yl)pyridin-2-yl)methyl)-1-(2,3-difluorophenyl)-5,5-dimethylimidazolidin-2,4-dione] | 43 nM | > 10000 nM
CC1(C)C(=O)N(Cc2ccc(-c3nnc(C(F)F)o3)cn2)C(=O)N1c1ccc(-c2cccnc2)cc1 [Compound 27, 3-((5-(5-(difluoromethyl)-1,3,4-oxadiazol-2-yl)pyridin-2-yl)methyl)-5,5-dimethyl-1-(4-(pyridin-3-yl)phenyl)imidazolidin-2,4-dione] | 55 nM | > 10000 nM
CC1(C)C(=O)N(Cc2ccc(-c3nnc(C(F)F)o3)cn2)C(=O)N1c1cccc([N+](=O)[O-])c1 [Compound 34, 3-((5-(5-(difluoromethyl)-1,3,4-oxadiazol-2-yl)pyridin-2-yl)methyl)-5,5-dimethyl-1-(3-nitrophenyl)imidazolidin-2,4-dione] | 46 nM | > 10000 nM
CC1(C)C(=O)N(Cc2ccc(-c3nnc(C(F)F)o3)cn2)C(=O)N1c1ccccc1 [Compound 18, 3-((5-(5-(difluoromethyl)-1,3,4-oxadiazol-2-yl)pyridin-2-yl)methyl)-5,5-dimethyl-1-phenylimidazolidin-2,4-dione] | 79 nM | > 10000 nM
CC(C)N1CC2(C1)C(=O)N(Cc1ccc(-c3nnc(C(F)F)o3)cn1)C(=O)N2c1ccccc1 [Compound 22, 7-((5-(5-(difluoromethyl)-1,3,4-oxadiazol-2-yl)pyridin-2-yl)methyl)-2-isopropyl-5-phenyl-2,5,7-triazaspiro[3.4]octan-6,8-dione] | 191 nM | > 10000 nM
CC1(C)C(=O)N(Cc2ccc(-c3nnc(C(F)F)o3)cn2)C(=O)N1c1cccc(Br)c1 [Compound 11, 1-(3-bromophenyl)-3-((5-(5-(difluoromethyl)-1,3,4-oxadiazol-2-yl)pyridin-2-yl)methyl)-5,5-dimethylimidazolidin-2,4-dione] | 56 nM | > 10000 nM
CC(C)N1CCC2(CC1)C(=O)N(Cc1ccc(-c3nnc(C(F)F)o3)cn1)C(=O)N2c1cccc(F)c1 [Compound 8, 3-((5-(5-(difluoromethyl)-1,3,4-oxadiazol-2-yl)pyridin-2-yl)methyl)-1-(3-fluorophenyl)-8-isopropyl-1,3,8-triazaspiro[4.5]decan-2,4-dione] | 99 nM | > 10000 nM
CC(=O)Nc1cccc(N2C(=O)N(Cc3ccc(-c4nnc(C(F)F)o4)cn3)C(=O)C2(C)C)c1 [Compound 36, N-(3-(3-((5-(5-(difluoromethyl)-1,3,4-oxadiazol-2-yl)pyridin-2-yl)methyl)-5,5-dimethyl-2,4-dioxoimidazolidin-1-yl)phenyl)acetamide] | 35 nM | > 10000 nM
O=C1CN(c2ccccc2)C(=O)N1Cc1ncc(-c2nnc(C(F)F)o2)cn1 [Compound 9, 3-((5-(5-(difluoromethyl)-1,3,4-oxadiazol-2-yl)pyrimidin-2-yl)methyl)-1-phenylimidazolidin-2,4-dione] | 147 nM | > 10000 nM
